Patent publication US11046699B2, “Pyrazolo-pyrimidin-amino-cycloalkyl compounds and their therapeutic uses” (RAPT THERAPEUTICS, INC., priority 2018, dated 2021)
Like-named read-outs stand apart in the source and are kept apart here.

Target: GCN2 (Homo sapiens, UniProt Q9P2K8)
Experiment: GCN2 enzymatic endpoint assay: phosphorylation of GFP-eIF2α measured by TR-FRET (Lanthascreen)
Format: biochemical
How it was run: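 Read-out is the TR-FRET ratio of acceptor signal at 520 nm to terbium donor at 495 nm, rising with antibody binding to phosphorylated GFP-eIF2α. Endpoint format: 2 μM ATP, 80 nM substrate, 90 minutes at room temperature, EDTA stop.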

[1] = tested as described in Example 77, compound and/or hydrochloride, dihydrochloride or trifluoroacetic acid salt, read-out: IC 50 Activity
[2] = GCN2 biochemical IC50, 4 nM GCN2, 2 μM ATP, 80 nM GFP-eIF2α, 90 min RT, read-out: GCN2 activity

GCN2, sequence (Q9P2K8 whole entry): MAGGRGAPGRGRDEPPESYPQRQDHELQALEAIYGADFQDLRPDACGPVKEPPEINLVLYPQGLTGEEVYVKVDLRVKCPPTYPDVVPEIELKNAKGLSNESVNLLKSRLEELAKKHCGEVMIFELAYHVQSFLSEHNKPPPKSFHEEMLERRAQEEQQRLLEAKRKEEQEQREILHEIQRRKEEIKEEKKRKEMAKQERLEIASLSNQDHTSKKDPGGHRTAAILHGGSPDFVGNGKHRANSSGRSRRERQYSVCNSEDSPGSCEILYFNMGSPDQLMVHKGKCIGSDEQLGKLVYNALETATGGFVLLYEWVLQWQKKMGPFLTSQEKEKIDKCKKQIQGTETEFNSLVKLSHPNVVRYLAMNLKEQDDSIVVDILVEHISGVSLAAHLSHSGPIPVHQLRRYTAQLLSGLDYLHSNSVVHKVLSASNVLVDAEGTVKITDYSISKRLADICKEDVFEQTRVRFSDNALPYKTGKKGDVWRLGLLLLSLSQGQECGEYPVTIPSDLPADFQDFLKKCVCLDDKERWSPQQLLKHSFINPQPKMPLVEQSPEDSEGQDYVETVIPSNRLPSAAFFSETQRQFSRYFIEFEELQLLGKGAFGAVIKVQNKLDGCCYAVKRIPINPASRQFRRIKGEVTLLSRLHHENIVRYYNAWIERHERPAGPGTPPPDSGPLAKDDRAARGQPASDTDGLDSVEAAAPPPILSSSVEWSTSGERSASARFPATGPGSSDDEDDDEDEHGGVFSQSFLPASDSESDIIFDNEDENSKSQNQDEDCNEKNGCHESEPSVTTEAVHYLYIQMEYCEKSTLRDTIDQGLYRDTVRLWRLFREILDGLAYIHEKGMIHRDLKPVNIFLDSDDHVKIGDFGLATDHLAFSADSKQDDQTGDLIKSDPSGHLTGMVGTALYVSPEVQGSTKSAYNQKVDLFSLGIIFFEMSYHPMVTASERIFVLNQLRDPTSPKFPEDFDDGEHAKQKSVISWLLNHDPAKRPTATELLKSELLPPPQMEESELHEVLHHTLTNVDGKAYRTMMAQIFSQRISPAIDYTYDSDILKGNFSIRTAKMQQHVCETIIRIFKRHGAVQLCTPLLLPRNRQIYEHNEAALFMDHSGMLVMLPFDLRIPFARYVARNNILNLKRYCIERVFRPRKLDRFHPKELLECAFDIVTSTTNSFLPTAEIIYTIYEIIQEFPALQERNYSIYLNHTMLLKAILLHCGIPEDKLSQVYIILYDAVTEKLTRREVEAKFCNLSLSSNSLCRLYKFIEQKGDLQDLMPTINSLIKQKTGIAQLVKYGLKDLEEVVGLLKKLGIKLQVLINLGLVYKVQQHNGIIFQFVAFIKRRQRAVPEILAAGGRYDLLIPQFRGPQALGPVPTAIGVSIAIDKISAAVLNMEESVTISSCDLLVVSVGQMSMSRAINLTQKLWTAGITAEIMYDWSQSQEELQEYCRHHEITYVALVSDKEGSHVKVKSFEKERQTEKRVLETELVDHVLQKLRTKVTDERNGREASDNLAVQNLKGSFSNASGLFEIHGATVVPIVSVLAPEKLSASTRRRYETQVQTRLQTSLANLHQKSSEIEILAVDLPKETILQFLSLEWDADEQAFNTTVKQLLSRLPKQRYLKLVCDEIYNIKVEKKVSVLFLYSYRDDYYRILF

Structure (SMILES) | IC50 [1] | IC50 [2]
CNC(=O)[C@]1(C)CC[C@@H](Nc2ncc3c(Br)nn(-c4ccc5c(c4)OC(C)C(=O)N5C)c3n2)C1 (stereo partly drawn) [(1R,3R)-3-[[3-bromo-1-(2,4-dimethyl-3-oxo-1,4-benzoxazin-7-yl)pyrazolo [3,4-d]pyrimidin-6-yl]amino]-N,1-dimethyl-cyclopentanecarboxamide] | 25 to 200 nM | 
N#CC1CN(C(=O)[C@@H]2CC[C@@H](Nc3ncc4c(Br)cn(-c5cc(F)c6ncccc6c5)c4n3)C2)C1 [1-((1R,3R)-3-((5-bromo-7-(8-fluoroquinolin-6-yl)-7H-pyrrolo[2,3-d]pyrimidin-2-yl)amino)cyclopentane-1-carbonyl)azetidine-3-carbonitrile] | < 25 nM | 
O=C1OCC[C@@]12CC[C@@H](Nc1ncc3c(Br)nn(-c4cc(F)c5ncccc5c4)c3n1)C2 [(5S,8R)-8-[[3-bromo-1-(8-fluoro-6-quinolyl)pyrazolo[3,4-d]pyrimidin-6-yl]amino]-2-oxaspiro[4.4]nonan-1-one] | 25 to 200 nM | 
CNC(=O)[C@]1(C)CC[C@@H](Nc2ncc3c(Br)nn(-c4ccc(Cl)c([C@H](C)N)c4)c3n2)C1 [Example 65, (1R,3R)-3-((1-(3-((S)-1-aminoethyl)-4-chlorophenyl)-3-bromo-1H-pyrazolo[3,4-d]pyrimidin-6-yl)amino)-N,1-dimethylcyclopentane-1-carboxamide] |  | < 25 nM
CNC(=O)C1(C)CC[C@@H](Nc2ncc3c(Br)nn(-c4cc(CO)cc(OC)c4)c3n2)C1 (mixture of isomers) | 25 to 200 nM | 
Cc1nnc(-c2ccc(-n3nc(Br)c4cnc(N[C@@H]5CCC(C)(CP(C)(C)=O)C5)nc43)cc2CCC#N)s1 (some centres unmarked) | 25 to 200 nM | 
O[C@@H]1CC[C@@H](Nc2ncc3c(Br)nn(-c4cc(F)c5ncccc5c4)c3n2)C1 [(1R,3R)-3-[[3-bromo-1-(8-fluoro-6-quinolyl)pyrazolo[3,4-d]pyrimidin-6-yl]amino]cyclopentanol] | 25 to 200 nM | 
CNC(=O)[C@]1(C)CC[C@@H](Nc2ncc3c(Br)nn(-c4ccc(-c5nccs5)cc4)c3n2)C1 [(1R,3R)-3-[[3-bromo-1-(4-thiazol-2-ylphenyl)pyrazolo[3,4-d]pyrimidin-6-yl]amino]-N,1-dimethyl-cyclopentane-carboxamide] | 25 to 200 nM | 
CNC(=O)C1(C)CC[C@@H](Nc2ncc3c(Br)nn(-c4cc(CO)cc(OC)c4)c3n2)C1 (stereo partly drawn) [(3R)-3-[[3-bromo-1-[3-(hydroxymethyl)-5-methoxy-phenyl]pyrazolo[3,4-d]pyrimidin-6-yl]amino]-N,1-dimethyl-cyclopentanecarboxamide] | 25 to 200 nM | 
CNC(=O)[C@]1(C)CC[C@@H](Nc2ncc3c(Br)nn(-c4cc(Cl)cc(C(C)O)c4)c3n2)C1 (some centres unmarked) | < 25 nM | 
CNC(=O)[C@]1(C)CC[C@@H](Nc2ncc3c(Br)nn(-c4cc(F)c5nc(C)cc(O)c5c4)c3n2)C1 [(1R,3R)-3-[[3-bromo-1-(8-fluoro-4-hydroxy-2-methyl-6-quinolyl)pyrazolo[3,4-d]pyrimidin-6-yl]amino]-N,1-dimethyl-cyclopentanecarboxamide] | 25 to 200 nM | 
CNC(=O)C1(C)CC[C@@H](Nc2ncc3c(Br)nn(-c4cccc(C(C)(C)O)c4)c3n2)C1 (stereo partly drawn) [(3R)-3-[[3-bromo-1-[3-(1-hydroxy-1-methyl-ethyl)phenyl]pyrazolo[3,4-d]pyrimidin-6-yl]amino]-N,1-dimethyl-cyclopentane-carboxamide] | 25 to 200 nM | 
CC1(C(=O)NCC(F)(F)F)CC[C@@H](Nc2ncc3c(Br)nn(-c4cc(F)c5ncccc5c4)c3n2)C1 (stereo partly drawn) [(3R)-3-[[3-bromo-1-(8-fluoro-6-quinolyl)pyrazolo[3,4-d]pyrimidin-6-yl]amino]-1-methyl-N-(2,2,2-trifluoroethyl)cyclo-pentanecarboxamide] | 25 to 200 nM | 
CC#CC(=O)NCCc1cc(-n2nc(Br)c3cnc(N[C@@H]4CC[C@@](C)(C(=O)NC)C4)nc32)cc2cccnc12 [(1R,3R)-3-[[3-bromo-1-[8-[2-(but-2-ynoylamino)ethyl]-6-quinolyl]pyrazolo [3,4-d]pyrimidin-6-yl]amino]-N,1-dimethyl-cyclopentanecarboxamide] | 25 to 200 nM | 
C[C@]1(C(=O)NCCO)CC[C@@H](Nc2ncc3c(Br)nn(-c4cc(F)c5ncccc5c4)c3n2)C1 [(1S,3R)-3-[[3-bromo-1-(8-fluoro-6-quinolyl)pyrazolo[3,4-d]pyrimidin-6-yl]amino]-N-(2-hydroxyethyl)-1-methyl-cyclopentane-carboxamide] | 25 to 200 nM | 
CNC(=O)[C@]1(C)CC[C@@H](Nc2ncc3c(Br)nn(-c4ccc(-c5ncco5)c(C5CCNCC5)c4)c3n2)C1 [(1R,3R)-3-[[3-bromo-1-[4-oxazol-2-yl-3-(4-piperidyl)phenyl]pyrazolo[3,4-d]pyrimidin-6-yl]amino]-N,1-dimethyl-cyclopentanecarboxamide] | 25 to 200 nM | 
O=C(O)CCNC(=O)[C@@H]1CC[C@@H](Nc2ncc3c(Br)nn(-c4cc(F)c5ncccc5c4)c3n2)C1 [3-((1R,3R)-3-((3-bromo-1-(8-fluoroquinolin-6-yl)-1H-pyrazolo[3,4-d]pyrimidin-6-yl)amino)cyclopentane-1-carboxamido) propanoic acid] | 25 to 200 nM | 
C[C@@]1(C(=O)N2CCNC(=O)C2)CC[C@@H](Nc2ncc3c(Br)nn(-c4cc(F)c5ncccc5c4)c3n2)C1 [4-[(1R,3R)-3-[[3-bromo-1-(8-fluoro-6-quinolyl)pyrazolo[3,4-d]pyrimidin-6-yl]amino]-1-methyl-cyclopentanecarbonyl] piperazin-2-one] | < 25 nM | 

More lines, now with the values ahead:

IC50 [1] | IC50 [2] | Structure (SMILES)
< 25 nM |  | CNC(=O)[C@]1(C)CC[C@@H](Nc2ncc3c(Br)nn(-c4ccc5nc(OC)ncc5c4)c3n2)C1 [(1R,3R)-3-[[3-bromo-1-(2-methoxy-quinazolin-6-yl)pyrazolo[3,4-d]pyrimidin-6-yl]amino]-N,1-dimethyl-cyclopentane-carboxamide; 2,2,2-trifluoroacetic acid]
25 to 200 nM |  | CNC(=O)[C@]1(C)CC[C@@H](Nc2ncc3c(Br)nn(-c4ccc(-c5nnc(C)s5)c(CC(N)C(F)(F)F)c4)c3n2)C1 (stereo partly drawn) [(1R,3R)-3-[[1-[3-(2-amino-3,3,3-trifluoro-propyl)-4-(5-methyl-1,3,4-thiadiazol-2-yl)phenyl]-3-bromo-pyrazolo[3,4-d]pyrimidin-6-yl]amino]-N,1-dimethyl-cyclopentane-carboxamide]
 | 25 to 200 nM | CNC(=O)[C@]1(C)CC[C@@H](Nc2ncc3c(Br)nn(-c4ccc5ncccc5c4)c3n2)C1 (single isomer, unassigned) [Example 18]
25 to 200 nM |  | CNC(=O)[C@]1(C)CC[C@@H](Nc2ncc3c(Br)nn(-c4cc(Br)cc(CO)c4)c3n2)C1 [(1R,3R)-3-[[3-bromo-1-[3-bromo-5-(hydroxymethyl)phenyl]pyrazolo [3,4-d]pyrimidin-6-yl]amino]-N,1-dimethyl-cyclopentanecarboxamide]
25 to 200 nM |  | CNC(=O)[C@]1(C)CC[C@@H](Nc2ncc3c(Br)nn(-c4ccc(-c5nnc(C)o5)c(CCN)c4)c3n2)C1 [(1R,3R)-3-[[1-[3-(2-aminoethyl)-4-(5-methyl-1,3,4-oxadiazol-2-yl)phenyl]-3-bromopyrazolo[3,4-d]pyrimidin-6-yl]amino]-N,1-dimethyl-cyclopentane-carboxamide]
< 25 nM |  | CNC(=O)[C@]1(CCCOC)CC[C@@H](Nc2ncc3c(Br)nn(-c4cc(F)c5ncccc5c4)c3n2)C1 [(1S,3R)-3-[[3-bromo-1-(8-fluoro-6-quinolyl)pyrazolo[3,4-d]pyrimidin-6-yl]amino]-1-(3-methoxypropyl)-N-methyl-cyclopentane-carboxamide]
25 to 200 nM |  | CNC(=O)[C@]1(C)CC[C@@H](Nc2ncc3c(Br)nn(-c4ccc(-c5cncn5C)cc4)c3n2)C1 [(1R,3R)-3-[[3-bromo-1-[4-(3-methylimidazol-4-yl)phenyl]pyrazolo[3,4-d]pyrimidin-6-yl]amino]-N,1-dimethyl-cyclopentane-carboxamide]
25 to 200 nM |  | CNC(=O)[C@]1(C)CC[C@@H](Nc2ncc3c(Br)nn(-c4ccc5nc(CNCCC#N)ccc5c4)c3n2)C1 [(1R,3R)-3-[[3-bromo-1-[2-[(2-cyanoethylamino)methyl]-6-quinolyl]pyrazolo[3,4-d]pyrimidin-6-yl]amino]-N,1-dimethyl-cyclopentane-carboxamide]
25 to 200 nM |  | CNC(=O)[C@]1(C)CC[C@@H](Nc2ncc3c(Br)nn(-c4cc(CS(C)(=O)=O)c5nccnc5c4)c3n2)C1 [(1R,3R)-3-[[3-bromo-1-[8-(methyl-sulfonylmethyl)quinoxalin-6-yl]pyrazolo [3,4-d]pyrimidin-6-yl]amino]-N,1-dimethyl-cyclopentanecarboxamide]
25 to 200 nM |  | CNC(=O)[C@H]1C[C@H](Nc2ncc3c(Br)nn(-c4ccc(-c5nnc(C)s5)cc4)c3n2)CO1 [(2R,4S)-4-[[3-bromo-1-[4-(5-methyl-1,3,4-thiadiazol-2-yl)phenyl]pyrazolo [3,4-d]pyrimidin-6-yl]amino]-N-methyl-tetrahydrofuran-2-carboxamide]
25 to 200 nM |  | O=C(NCCn1ccnc1)[C@@H]1CC[C@@H](Nc2ncc3c(Br)nn(-c4ccc5ncccc5c4)c3n2)C1 [(1R,3R)-N-(2-(1H-imidazol-1-yl)ethyl)-3-((3-bromo-1-(quinolin-6-yl)-1H-pyrazolo[3,4-d]pyrimidin-6-yl)amino)cyclopentane-1-carboxamide]
< 25 nM |  | CNC(=O)[C@]1(C)CC[C@@H](Nc2ncc3c(Br)nn(-c4cc(OCCOC)c5ncccc5c4)c3n2)C1 [(1R,3R)-3-[[3-bromo-1-[8-(2-methoxy-ethoxy)-6-quinolyl]pyrazolo[3,4-d]pyrimidin-6-yl]amino]-N,1-dimethyl-cyclopentanecarboxamide]
25 to 200 nM |  | CNC(=O)[C@]1(C)CC[C@@H](Nc2ncc3c(Br)nn(-c4ccc(-c5ncco5)c(CO)c4)c3n2)C1 [(1R,3R)-3-[[3-bromo-1-[3-(hydroxymethyl)-4-oxazol-2-yl-phenyl]pyrazolo[3,4-d]pyrimidin-6-yl]amino]-N,1-dimethyl-cyclopentanecarboxamide]
25 to 200 nM |  | CNC(=O)[C@]1(C)CC[C@@H](Nc2ncc3c(Br)nn(-c4ccc(C(=O)c5ccno5)cc4)c3n2)C1 [(1R,3R)-3-[[3-bromo-1-[4-(isoxazole-5-carbonyl)phenyl]pyrazolo[3,4-d]pyrimidin-6-yl]amino]-N,1-dimethyl-cyclopentanecarboxamide]
